Results as given in US20130331357A1, “COMBINATION THERAPY OF HSP90 INHIBITORY COMPOUNDS WITH PROTEASOME INHIBITORS” (SYNTA PHARMACEUTICALS CORP., priority 2011, published 2013).

Experiments:
[1] = test system: H1703 cells; experiment: Cell Titer-Glo cell viability assay, H1703 NSCLC cells; format: cell-based, Human; settings: for cells killed: viability 72 hr later
Method: Cells were maintained at 37° C., 5% CO2 atmosphere.
[…] […] Viability was assessed 72 hr later.
Combination Index (CI) was then determined using the median effect analysis software CalcuSyn 2.0 (CalcuSyn, Inc.). A Combination Index greater than 1, equal to 1 or less than 1 indicates antagonism, additivity and synergism, respectively.

[2] = test system: H1838 cells; experiment: Cell viability assay, H1838 NSCLC cells; format: cell-based, Human; settings: bortezomib day 1, compound 1 day 2; 72 hours after compound 1 exposure (FIG. 6)
Method: Human H1703, H1975, H1838 NSCLC cells, U266 multiple myeloma cells, HCT116 colon cancer cells and Detroit562 head and neck cancer cells were purchased from the American Type Culture Collection (Manassas, Va.). H1975, H1703, H1838 and U266 cells were grow in RPMI media, HCT116 cells were grown in McCoy's media and Detroit562 cells were grown in MEM. Fetal bovine serum (10%) was added to all media, along with 2 mM L-glutamine and antibiotics (100 IU/ml penicillin and 100 μg/ml streptomycin) purchased from Sigma Aldrich. Cells were maintained at 37° C., 5% CO2 atmosphere.
Cell viability was measured using the Cell Titer-Glo assay (Promega). In brief, cells were plated in 96-well plates in triplicate at optimal seeding density (determined empirically for each cell line) and incubated at 37° C., 5% CO2 atmosphere for 24 hr prior to the addition of drug or vehicle (0.3% DMSO) to the culture medium. At the end of the assay, Cell Titer-Glow was added to the wells per manufactures recommendation, shaken for two minutes and incubated for 10 minutes at room temperature. Luminescence (0.1 sec) was measured with a Victor II microplate reader (Perkin Elmer) and the resulting data were used to calculate cell viability, normalized to vehicle control.

[3] = Phase 1 clinical investigations, intravenous Compound 1; format: in vivo, human
From the text: Compound 1 was advanced into phase 1 clinical investigations studying patients with refractory hematologic malignancies using two intravenous schedules of administration: weekly for 3 out of every 4 weeks and twice weekly without breaks dosing by one-hour infusion.

[4] = bortezomib day 1, compound 1 Day 2, 72 hours after compound 1 exposure (FIG. 4)
[5] = concurrent, one hour on both days 1 and 2, 72 hours after final drug exposure (FIG. 5)

| patients with Grade 1-2 infusional reactions ([3]; phase 1 patients) [%] | Structure (SMILES) | cells killed ([1]; bortezomib alone 22 nM, 1 hr exposure Day 1 and Day 2) [%] | cell death by microscopy [1, 4] | cells killed ([1]; bortezomib on its own 15 nM, 8 hr pulse Day 1, washout) [%] | cell death by microscopy [1, 5] | cell death by microscopy [2] | cells killed ([1]; compound 1 alone 50 nM, 8 hr pulse, washout) [%] | cells killed ([1]; compound 1 alone 74 nM, 1 hr exposure Day 1 and Day 2) [%] | efficacy signals, hematologic malignancies ([3]; phase 1 AML and CML patients) | cardiac effects following the infusion ([3]; phase 1 patients) | efficacy signals, solid tumors ([3]; phase 1 patients) | severe hepatotoxicity ([3]; phase 1 patients, unlike geldanamycin-based HSP90 inhibitors) | dose limiting toxicities ([3]; phase 1 program, solid tumors and refractory hematologic malignancies, one-hour infusion) |
| --- | --- | --- | --- | --- | --- | --- | --- | --- | --- | --- | --- | --- | --- |
|  | CC(C)C[C@H](NC(=O)[C@H](Cc1ccccc1)NC(=O)c1cnccn1)B(O)O [bortezomib, reference compound] | 15 | weak activity | 25 | weak activity | weak activity |  |  |  |  |  |  |  |
| 5 | CC(C)c1cc(-c2nnc(O)n2-c2ccc3c(ccn3C)c2)c(O)cc1O [compound 1, 3-(2,4-dihydroxy-5-isopropyl-phenyl)-4-(1-methyl-indol-5-yl)-5-hydroxy-[1,2,4] triazole] |  | weak activity |  | weak activity | weak activity | 10 | 15 | declines in peripheral and bone marrow blasts | Moderate tachycardia and PR interval prolongation | partial responses in colorectal cancer and melanoma | has not been observed | reversible fatigue and diarrhea |
